IC50 data for 26 compounds are collected here from patent publication US10562912B2 (C&C Research Laboratories, priority 2013, dated 2020).

A word on the IC50: it is the concentration that inhibits the measured activity by half. High values mean weaker potency in that assay, low ones greater potency in that assay.

What all share (assay type): cell-based
For experiment [1], the system named is MDA-MB-231. The experiment is described as follows: Cell growth inhibition assay, breast cancer cell line MDA-MB-231. The following applies: Homo sapiens; MDA-MB-231 breast cancer cell line, 5,000 cells/well.
For experiment [2], the system named is LNCaP. Kind of experiment: Cell growth inhibition assay, prostate cancer cell line LNCaP (medium with 10 ng/mL IL-6). The following applies: Homo sapiens, medium supplemented with 10 ng/mL of IL-6, 10,000 cells/well.
For experiment [3], the target named is T1, STAT3 (Homo sapiens, UniProt P40763).
T1 construct: plasmid pSTAT3-TA-luc), which contains a stably operating STAT3 promoter; endogenous in cells
T1 sequence (P40763 whole entry): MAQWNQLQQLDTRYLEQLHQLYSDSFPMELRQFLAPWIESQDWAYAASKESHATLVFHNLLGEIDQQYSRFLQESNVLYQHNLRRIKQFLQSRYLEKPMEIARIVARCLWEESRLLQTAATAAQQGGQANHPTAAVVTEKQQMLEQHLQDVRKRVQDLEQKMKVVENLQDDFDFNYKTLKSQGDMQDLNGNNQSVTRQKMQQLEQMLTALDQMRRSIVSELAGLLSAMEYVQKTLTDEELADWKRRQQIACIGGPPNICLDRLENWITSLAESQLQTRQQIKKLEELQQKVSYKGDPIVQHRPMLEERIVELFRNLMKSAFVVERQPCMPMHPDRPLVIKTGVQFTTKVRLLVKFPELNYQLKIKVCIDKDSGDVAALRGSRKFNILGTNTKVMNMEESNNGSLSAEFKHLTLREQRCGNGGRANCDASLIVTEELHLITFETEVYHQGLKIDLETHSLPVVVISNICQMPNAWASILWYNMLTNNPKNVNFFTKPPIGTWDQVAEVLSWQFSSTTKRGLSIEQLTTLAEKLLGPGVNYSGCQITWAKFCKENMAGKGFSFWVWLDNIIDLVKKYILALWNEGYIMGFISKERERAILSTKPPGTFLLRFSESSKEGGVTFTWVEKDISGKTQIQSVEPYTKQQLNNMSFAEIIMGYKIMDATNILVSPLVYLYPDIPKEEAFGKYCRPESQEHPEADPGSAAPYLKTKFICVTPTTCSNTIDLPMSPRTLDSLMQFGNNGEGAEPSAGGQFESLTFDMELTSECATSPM
Kind of experiment: STAT3 reporter gene assay (luciferase), LNCaP stable cell line (pSTAT3-TA-luc), IL-6 stimulation. In a few lines:
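LNCaP cells stably carrying pSTAT3-TA-luc, in RPMI1640 with 3% DCC-FBS, were treated with compound and then stimulated with 10 ng/mL IL-6 for 24–48 h at 37 °C. Luciferase activity was measured in lysates. A parallel plate measured viability by CellTiter-Glo, with stimulated 0.1% DMSO wells as the positive control.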
A general note: A reporter such as luciferase makes a cellular process visible.

Turning to `CC(C)(c1cccc(CN2CCNCC2)c1)c1cc(Br)cc(NC(=O)c2cc3ccc(NS(C)(=O)=O)cc3[nH]2)c1` [Example 119, N-(3-bromo-5-(2-(3-(piperazin-1-ylmethyl)phenyl)propan-2-yl)phenyl)-6-(methylsulfonamido)-1H-indole-2-carboxamide], the IC50 in experiment [1] is 6.1 µM; in experiment [2] it was greater than 10 µM; in experiment [3], greater than 10 µM.

For `CC(C)(c1cccc(C#N)c1)c1cccc(NC(=O)c2cc3cc(NS(C)(=O)=O)ccc3s2)c1` [Example 224, N-(3-(2-(3-cyanophenyl)propan-2-yl)phenyl)-5-(methylsulfonamido)benzo[b]thiophene-2-carboxamide], the IC50 in experiment [1] is 0.033 µM; in experiment [2] it was 0.27 µM; in experiment [3] it was 0.26 µM.

Regarding `COc1cc2cc(C(=O)Nc3cccc(-c4ccc(F)cc4F)c3)[nH]c2cc1NS(C)(=O)=O` [Example 236, N-(2′,4′-difluoro-[1,1′-biphenyl]-3-yl)-5-methoxy-6-(methylsulfonamido)-1H-indole-2-carboxamide], the IC50 in experiment [1] stood at 0.41 µM; in experiment [2] it was 2.7 µM; in experiment [3], 0.31 µM.

For `CS(=O)(=O)Nc1ccc2sc(C(=O)Nc3cccc(-c4ccc(F)cc4F)c3)cc2c1` [Example 237, N-(2′,4′-difluoro-[1,1′-biphenyl]-3-yl)-5-(methylsulfonamido)benzo[b]thiophene-2-carboxamide], the half-inhibitory concentration (IC50) amounted to 0.01 µM in experiment [1], 0.61 µM in experiment [2] and 0.11 µM in experiment [3].

`CS(=O)(=O)Nc1ccc2oc(C(=O)Nc3cccc(-c4ccc(F)cc4F)c3)cc2c1` [Example 238, N-(2′,4′-difluoro-[1,1′-biphenyl]-3-yl)-5-(methylsulfonamido)benzofuran-2-carboxamide]: the concentration for half-maximal inhibition (IC50) in experiment [1] worked out at 0.55 µM; in experiment [2] it was 2.4 µM; in experiment [3] it was 0.27 µM.

Turning to `O=C(Nc1cccc(-c2ccc(F)cc2F)c1)c1cc2cc(OC(F)(F)F)ccc2[nH]1` [Example 239, N-(2′,4′-difluoro-[1,1′-biphenyl]-3-yl)-5-(trifluoromethoxy)-1H-indole-2-carboxamide], the figures for the IC50 in experiment [1], in experiment [2] and in experiment [3] were greater than 10 µM, 8.3 µM and greater than 10 µM, respectively.

Turning to `CS(=O)(=O)c1ccc2cc(C(=O)Nc3cccc(-c4ccc(F)cc4F)c3)[nH]c2c1` [Example 240, N-(2′,4′-difluoro-[1,1′-biphenyl]-3-yl)-6-(methylsulfonyl)-1H-indole-2-carboxamide], the IC50 in experiment [1], in experiment [2] and in experiment [3] was greater than 10 µM in each case.

As for `Cc1c(C(=O)Nc2cccc(-c3ccc(F)cc3F)c2)sc2cc(NS(C)(=O)=O)ccc12` [Example 241, N-(2′,4′-difluoro-[1,1′-biphenyl]-3-yl)-3-methyl-6-(methylsulfonamido)benzo[b]thiophene-2-carboxamide], the half-maximal inhibitory concentration (IC50) in experiment [1] turned out to be 2.7 µM; in experiment [2], 5.4 µM; in experiment [3], 1.8 µM.

`CS(=O)(=O)Nc1ccc2cc(C(=O)Nc3cccc(-c4ccc(F)cc4F)c3)sc2c1` [Example 242, N-(2′,4′-difluoro-[1,1′-biphenyl]-3-yl)-6-(methylsulfonamido)benzo[b]thiophene-2-carboxamide]: the IC50 in experiment [1] worked out at 0.54 µM; in experiment [2] it was 4 µM; in experiment [3], 0.96 µM.

`Cc1c(C(=O)Nc2cccc(-c3ccc(F)cc3F)c2)sc2ccc(NS(C)(=O)=O)cc12` [Example 243, N-(2′,4′-difluoro-[1,1′-biphenyl]-3-yl)-3-methyl-5-(methylsulfonamido)benzo[b]thiophene-2-carboxamide]: the half-maximal inhibitory concentration (IC50) came out at 1.6 µM in experiment [1], 6.4 µM in experiment [2] and 7.2 µM in experiment [3].

Consider `CC(=O)c1cc(NC(=O)c2cc3ccc(NS(C)(=O)=O)cc3[nH]2)cc(-c2ccc(F)cc2F)c1` [Example 245, N-(5-acetyl-2′,4′-difluoro-[1,1′-biphenyl]-3-yl)-6-(methylsulfonamido)-1H-indole-2-carboxamide], for which the figures for the half-inhibitory concentration (IC50) in experiment [1], in experiment [2] and in experiment [3] were 2.6 µM, 4.9 µM and 1.4 µM, respectively.

For the compound `CS(=O)(=O)Nc1ccc2cc(C(=O)Nc3cc(-c4ccc(F)cc4F)c4cn[nH]c4c3)[nH]c2c1` [Example 246, N-(4-(2,4-difluorophenyl)-1H-indazol-6-yl)-6-(methylsulfonamido)-1H-indole-2-carboxamide], the IC50 in experiment [1] is 3.5 µM; in experiment [2], 9.2 µM; in experiment [3], 8.4 µM.

Consider `CNS(=O)(=O)Nc1ccc2cc(C(=O)Nc3cccc(-c4ccccc4C(F)(F)F)c3)[nH]c2c1` [Example 269], for which the figures for the IC50 in experiment [1], in experiment [2] and in experiment [3] were 2.1 µM, 4.1 µM and 2.3 µM, respectively.

On to `COc1cc2cc(C(=O)Nc3cc(Br)cc(-c4ccc(F)cc4F)c3)[nH]c2cc1NS(C)(=O)=O` [Example 303, N-(5-bromo-2′,4′-difluoro-[1,1′-biphenyl]-3-yl)-5-methoxy-6-(methylsulfonamido)-1H-indole-2-carboxamide], for which the IC50 was determined as 0.02 µM in experiment [1], 0.72 µM in experiment [2] and 0.23 µM in experiment [3].

On to `CS(=O)(=O)c1ccc2cc(C(=O)Nc3cc(Br)cc(-c4ccc(F)cc4F)c3)[nH]c2c1` [Example 304, N-(5-bromo-2′,4′-difluoro-[1,1′-biphenyl]-3-yl)-6-(methylsulfonyl)-1H-indole-2-carboxamide], for which the IC50 in experiment [1] is 5.3 µM; in experiment [2] it was greater than 10 µM; in experiment [3], 4 µM.

Regarding `CS(=O)(=O)Nc1ccc2oc(C(=O)Nc3cc(Br)cc(-c4ccc(F)cc4F)c3)cc2c1` [Example 306, N-(5-bromo-2′,4′-difluoro-[1,1′-biphenyl]-3-yl)-5-(methylsulfonamido)benzofuran-2-carboxamide], the IC50 in experiment [1] was determined as 0.37 µM; in experiment [2] it was 1.7 µM; in experiment [3] it was 0.28 µM.

For the compound `CNS(=O)(=O)Nc1ccc2cc(C(=O)Nc3cc(Br)cc(-c4ccc(F)cc4F)c3)[nH]c2c1` [Example 307, N-(5-bromo-2′,4′-difluoro-[1,1′-biphenyl]-3-yl)-6-((N-methylsulfamoyl)amino)-1H-indole-2-carboxamide], the 50% inhibitory concentration (IC50) worked out at 0.84 µM in experiment [1], 4.8 µM in experiment [2] and 1.1 µM in experiment [3].

With `O=C(Nc1cc(Br)cc(-c2ccc(F)cc2F)c1)c1cc2cc(OC(F)(F)F)ccc2[nH]1` [Example 308, N-(5-bromo-2′,4′-difluoro-[1,1′-biphenyl]-3-yl)-5-(trifluoromethoxy)-1H-indole-2-carboxamide], the half-inhibitory concentration (IC50) was 8.1 µM in experiment [1], greater than 10 µM in experiment [2] and 5.6 µM in experiment [3].

`Cc1c(C(=O)Nc2cc(Br)cc(-c3ccc(F)cc3F)c2)sc2cc(NS(C)(=O)=O)ccc12` [Example 309, N-(5-bromo-2′,4′-difluoro-[1,1′-biphenyl]-3-yl)-3-methyl-6-(methylsulfonamido)benzo[b]thiophene-2-carboxamide]: the figures for the IC50 in experiment [1], in experiment [2] and in experiment [3] were 1.2 µM, 5.9 µM and 1.5 µM, respectively.

As to `CS(=O)(=O)Nc1ccc2cc(C(=O)Nc3cc(Br)cc(-c4ccc(F)cc4F)c3)sc2c1` [Example 310, N-(5-bromo-2′,4′-difluoro-[1,1′-biphenyl]-3-yl)-6-(methylsulfonamido)benzo[b]thiophene-2-carboxamide], the IC50 in experiment [1] amounted to 0.39 µM; in experiment [2] it was 3.2 µM; in experiment [3] it was 0.8 µM.

Regarding `Cc1c(C(=O)Nc2cc(Br)cc(-c3ccc(F)cc3F)c2)sc2ccc(NS(C)(=O)=O)cc12` [Example 311, N-(5-bromo-2′,4′-difluoro-[1,1′-biphenyl]-3-yl)-3-methyl-5-(methylsulfonamido)benzo[b]thiophene-2-carboxamide], the 50% inhibitory concentration (IC50) is 1 µM in experiment [1], 6.7 µM in experiment [2] and 5.7 µM in experiment [3].

Regarding `CS(=O)(=O)Nc1ccc2cc(C(=O)Nc3cc(F)cc(-c4ccc(F)cc4F)c3)[nH]c2c1` [Example 312, 6-(methylsulfonamido)-N-(2′,4′,5-trifluoro-[1,1′-biphenyl]-3-yl)-1H-indole-2-carboxamide], the results for the 50% inhibitory concentration (IC50) in experiment [1], in experiment [2] and in experiment [3] were 0.22 µM, 1.3 µM and 0.24 µM, respectively.

Turning to `CS(=O)(=O)Nc1ccc2cc(C(=O)Nc3cc(-c4ccc(F)cc4F)cc(C(F)(F)F)c3)[nH]c2c1` [Example 313, N-(2′,4′-difluoro-5-(trifluoromethyl)-[1,1′-biphenyl]-3-yl)-6-(methylsulfonamido)-1H-indole-2-carboxamide], the IC50 in experiment [1] turned out to be 0.14 µM; in experiment [2], 3.7 µM; in experiment [3], 3.6 µM.

Consider `COc1cc(NC(=O)c2cc3ccc(NS(C)(=O)=O)cc3[nH]2)cc(-c2ccc(F)cc2F)c1` [Example 314, N-(2′,4′-difluoro-5-methoxy-[1,1′-biphenyl]-3-yl)-6-(methylsulfonamido)-1H-indole-2-carboxamide], for which the IC50 in experiment [1] turned out to be 0.37 µM; in experiment [2] it was 3.7 µM; in experiment [3], 4.5 µM.

Regarding `COc1cc(NC(=O)c2sc3cc(NS(C)(=O)=O)ccc3c2C)cc(-c2ccc(F)cc2F)c1` [Example 316, N-(2′,4′-difluoro-5-methoxy-[1,1′-biphenyl]-3-yl)-3-methyl-6-(methylsulfonamido)benzo[b]thiophene-2-carboxamide], the 50% inhibitory concentration (IC50) in experiment [1] stood at 4.6 µM; in experiment [2] it was 7 µM; in experiment [3], 3.6 µM.

On to `COc1cc(NC(=O)c2cc3cc(NS(C)(=O)=O)ccc3s2)cc(-c2ccc(F)cc2F)c1` [Example 317, N-(2′,4′-difluoro-5-methoxy-[1,1′-biphenyl]-3-yl)-5-(methylsulfonamido)benzo[b]thiophene-2-carboxamide], for which the results for the IC50 in experiment [1], in experiment [2] and in experiment [3] were 0.019 µM, 0.37 µM and 0.28 µM, respectively.
